# Assay results: patent publication US6548448B2, “Delivery systems for cyclopropenes” (Rohm and Haas Company, priority 2001, dated 2003)
# Legend:
# Type in all cases: physicochemical
# [1] = 1-MCP release from polyvinyl alcohol (PVA) film containing 1-MCP/α-cyclodextrin complex in humid chamber; details: for Concentration of 1-MCP: PVA film with 0.05 g complex, 36 liter high humidity chamber
# Method: 1-MCP/α-cyclodextrin complex powder (0.05 grams) was heat sealed into a 2×3.5 inch piece of 1.5 mil thick M 7061 polyvinyl alcohol (PVA) film (Chris Craft Corp.) using a Sealmaster 420 (Audion Elektro) heat sealer. This film was placed into a 36 liter volume high humidity chamber. […] The 1-MCP release characteristics of the film versus time were determined by periodically analyzing the atmosphere in the chamber for 1-MCP. The analysis method was gas chromatography using a flame ionization detector.
# [2] = 1-MCP release from waxy, cast (Parafilm M) film containing 1-MCP/α-cyclodextrin complex in humid chamber; details: for Concentration of 1-MCP: waxy cast Parafilm M film with 0.5 g complex, 36 liter high humidity chamber
# Method: Parafilm® “M” film (2.0 grams, American National Can Corp.) was dissolved/dispersed in 12 grams of hexane. 1-MCP/α-cyclodextrin complex powder (0.5 grams) was mixed into this suspension and then the whole mixture was poured into a 3.5 inch diameter glass crystallizing dish to dry. The dish was placed in a 50° C. oven for 5 hrs. to dry and the resulting cast film was removed from the dish. This film was placed into a 36 liter volume high humidity chamber being careful not to allow the film to contact any water directly. The 1-MCP release characteristics of the film versus time were determined by periodically analyzing the atmosphere in the chamber for 1-MCP. The analysis method was gas chromatography using a flame ionization detector.
# [3] = 1-MCP release from low density polyethylene (LDPE) film containing 1-MCP/α-cyclodextrin complex in humid chamber; details: for Concentration of 1-MCP: LDPE film with 0.05 g complex, 36 liter high humidity chamber
# Method: 1-MCP/α-CD complex powder (0.05 grams) was heat sealed into a 5.5×12 inch piece of 2.0 mil thick low density polyethylene (LDPE) film. This film was placed into a 36 liter volume high humidity chamber. […] The 1-MCP release characteristics of the film versus time were determined by periodically analyzing the atmosphere in the chamber for 1-MCP. The analysis method was gas chromatography using a flame ionization detector.
# [4] = 1-MCP release from wax paper exposed to 1-MCP gas, sealed jar; details: for Concentration of 1-MCP: wax paper exposed to 2206 ppm 1-MCP for 5 hours, sealed quart jar
# Method: Wax paper measuring 4.5×2.75 inches was exposed to 2206 ppm 1-MCP (vol/vol) in the atmosphere of a sealed quart jar for 5 hours. The film was removed, allowed to stand in air for 5 minutes and then sealed in a fresh quart jar equipped with a sampling septum. The 1-MCP release characteristics of the film versus time were determined by periodically analyzing the atmosphere in the jar for 1-MCP. The analysis method was gas chromatography using a flame ionization detector.
# [5] = 1-MCP release from high density polyethylene (HDPE) film exposed to 1-MCP gas, sealed jar; details: for Concentration of 1-MCP: HDPE film exposed to 2206 ppm 1-MCP for 2 hours, sealed quart jar
# Method: High density polyethylene (HDPE) film of 2 mil thickness measuring 4.5×2.75 inches was exposed to 2206 ppm 1-MCP (vol/vol) in the atmosphere of a sealed quart jar for 2 hours. The film was removed, allowed to stand in air for 5 minutes and then sealed in a fresh quart jar equipped with a sampling septum. The 1-MCP release characteristics of the film versus time were determined by periodically analyzing the atmosphere in the jar for 1-MCP. The analysis method was gas chromatography using a flame ionization detector.
structure (smiles),measurement,setting,value
"CC1=CC1 [Compound 1-MCP, 1-methylcyclopropene]",Concentration of 1-MCP,[1]; 0 min.,0.0 ppm
same,Concentration of 1-MCP,[1]; 5 min.,0.9 ppm
same,Concentration of 1-MCP,[1]; 25 min.,2.2 ppm
same,Concentration of 1-MCP,[1]; 45 min.,3.2 ppm
same,Concentration of 1-MCP,[1]; 90 min.,6.0 ppm
same,Concentration of 1-MCP,[1]; 20 hr.,17.0 ppm
same,1-MCP release from the film (in words),"[1]; PVA film, high humidity chamber, no direct water contact",released from the PVA film just by the water provided by humidity
same,Concentration of 1-MCP,[2]; 0 min.,0.0 ppm
same,Concentration of 1-MCP,[2]; 5 min.,0.02 ppm
same,Concentration of 1-MCP,[2]; 20 min.,0.1 ppm
same,Concentration of 1-MCP,[2]; 35 min.,0.3 ppm
same,Concentration of 1-MCP,[2]; 60 min.,0.8 ppm
same,Concentration of 1-MCP,[2]; 90 min.,1.4 ppm
same,1-MCP release from the film (in words),"[2]; waxy cast film, high humidity chamber, no direct water contact",released from the LDPE film just by the water provided by humidity
same,Concentration of 1-MCP,[3]; 0 min.,0.0 ppm
same,Concentration of 1-MCP,[3]; 5 min.,2.0 ppm
same,Concentration of 1-MCP,[3]; 20 min.,7.7 ppm
same,Concentration of 1-MCP,[3]; 40 min.,14.5 ppm
same,Concentration of 1-MCP,[3]; 60 min.,19.0 ppm
same,1-MCP release from the film (in words),"[3]; LDPE film, high humidity chamber, no direct water contact",released from the LDPE film just by the water provided by humidity
same,Concentration of 1-MCP,[4]; 0 min.,0.0 ppm
same,Concentration of 1-MCP,[4]; 0.5 min.,0.3 ppm
same,Concentration of 1-MCP,[4]; 5 min.,0.9 ppm
same,Concentration of 1-MCP,[4]; 15 min.,0.9 ppm
same,Concentration of 1-MCP,[4]; 60 min.,0.9 ppm
same,1-MCP release from the film (in words),"[4]; wax paper, sealed jar","less release than Example 4, but still a significant amount"
same,Concentration of 1-MCP,[5]; 0 sec.,0.0 ppm
same,Concentration of 1-MCP,[5]; 0.5 min.,3.0 ppm
same,Concentration of 1-MCP,[5]; 5 min.,8.0 ppm
same,Concentration of 1-MCP,[5]; 15 min.,9.6 ppm
same,Concentration of 1-MCP,[5]; 60 min.,11.0 ppm
same,1-MCP release from the film (in words),"[5]; HDPE film, sealed jar",significant release
